Assay [1] concerns C. albicans. Put plainly: Antifungal assay (MIC/MFC), twofold serial dilution.
Assay [2] relates to S. aureus. The experiment in a line: Modified disk diffusion, inhibition zone. Type of assay: cell-based, Staphylococcus aureus. Particulars: S. aureus (G+). As to the method: (§1) The antimicrobial effects of the currently synthesized Schiff bases (6a-l) were tested against two Gram-positive bacteria (S. aureus and B. subtilis), two Gram-negative bacteria (E. coli and P. aeruginosa), and two strains of fungus (A. flavus and C. albicans). The modified disk diffusion method ([Alkhaldi et al., 2019]; [Manso et al., 2021]) was used to determine the inhibition zones (IZ, mm/mL) and the minimal inhibitory concentration (MIC, nM). Ciprofloxacin and Fluconazole was used as positive controls. Tables 1–3 display the findings. […]
(§2) incubated at 35-37 °C for 24-48 hours and yeast as Candida albicans (ATCC 7102) incubated at 30 °C for 24-48 hours and, then the diameters of the inhibition zones were measured in millimeters. Standard discs of ciprofloxacin (Antibacterial agent), Fluconazole (Antifungal agent) served as positive controls for antimicrobial activity but filter discs impregnated with 10 µl of solvent (distilled water, chloroform, DMSO) were used as a negative control. Blank paper disks (Schleicher & Schuell, Spain) with a diameter of 8.0 mm were impregnated 10µ of tested concentration of the stock solutions. When a filter paper disc impregnated with a tested chemical is placed on agar the chemical will diffuse from the disc into the agar. This diffusion will place the chemical in the agar only around the disc. […]
Background: Agar diffusion results depend on both activity and mobility in agar.

Assay [3] deals with E. coli. The experiment in a line: Modified disk diffusion, inhibition zone. Type of assay: cell-based, Escherichia coli. The conditions noted are these: E. coli (G−). On the procedure:
as §1, §2

For assay [4], the system named is P. aeruginosa. The experiment in a line: Modified disk diffusion, inhibition zone. It counts as cell-based, Pseudomonas aeruginosa. The conditions noted are these: P. aeruginosa (G−). As to the method: as §1, §2
Assay [5] has as its system B. subtilis. Put plainly: Modified disk diffusion, inhibition zone. Type of assay: cell-based, Bacillus subtilis. The conditions noted are these: B. subtilis (G+). On the procedure:
as §1, §2

Assay [6] deals with A. flavus and C. albicans. Put plainly: Disk diffusion inhibition zone, both fungi. The conditions noted are these: against A. flavus and C. albicans. It counts as cell-based. On the procedure:
The antimicrobial effects of the currently synthesized Schiff bases (6a-l) were tested against two Gram-positive bacteria (S. aureus and B. subtilis), two Gram-negative bacteria (E. coli and P. aeruginosa), and two strains of fungus (A. flavus and C. albicans). The modified disk diffusion method ([Alkhaldi et al., 2019]; [Manso et al., 2021]) was used to determine the inhibition zones (IZ, mm/mL) and the minimal inhibitory concentration (MIC, nM). Ciprofloxacin and Fluconazole was used as positive controls. Tables 1–3 display the findings.

Assay [7] has as its system A. flavus. The experiment in a line: Antifungal assay (MIC/MFC), twofold serial dilution. The conditions noted are these: for MIC: A. flavus.

Usually MIC stands for the least concentration at which growth counts as inhibited. Read a high MIC as a need for much substance. The term MFC denotes the lowest tested concentration that kills the fungus rather than only halting it. A low value points to greater fungicidal potency.

Converted amounts (≈) assume the structure as drawn.

Turning to `OC(Cn1cncn1)(Cn1cncn1)c1ccc(F)cc1F` [Fluconazole, reference compound], the MIC in assay [1] (C. albicans) is 17.50 ± 1 µM (≈ 5.36 µg/mL); in assay [1] (Candida albicans), 17.5 µM (≈ 5.36 µg/mL); in assay [7], 11.50 ± 1 µM (≈ 3.52 µg/mL); in assay [7] (Aspergillus flavus) it was 11.5 µM (≈ 3.52 µg/mL). Moreover, the values for the MFC in assay [1] (Candida albicans) and in assay [7] (Aspergillus flavus) were 35 ± 2 µM (≈ 10.7 µg/mL) and 22.8 ± 1 µM (≈ 6.98 µg/mL), respectively. Moreover, the “Inhibition zone (IZ) diameter” value in assay [2], in assay [3], in assay [4] and in assay [5] was “NA (NA: no activity (8 mm))” in each case. In assay [6], this molecule gave an IZ values of 40 mm.

The values above are taken from PMC11590026, “Synthesis, enzyme inhibition, and docking studies of new schiff bases of disalicylic acid methylene-based derivatives as dual-target antibacterial agents” (Frontiers in Chemistry, 2024).
